Paper PMC12040169 (PLOS Biology, 2025)

test: in vitro; conditions: human, hela cells, % viability

| SMILES | viability at 28.5 h, 10 µM [%] |
| --- | --- |
| COC(=O)CC1C(=O)NCCN1C(=O)COc1ccc(Cl)cc1 (stereo not drawn) [CBK264938] | 80 |
| CN(C)Cc1cn([C@H]2CO[C@H]3[C@@H]2OC[C@@H]3NC(=O)NC2CCCCC2)nn1 [CBK289493] | 88.9 |
| O=C(c1cc2c(F)cccc2[nH]1)N1CCC(Oc2cccnc2)CC1 [CBK281468] | 103 |
| Nc1nnc(-c2ccc(Cl)cc2)[nH]1 [CBK025436] | 118 |
| CCN1CCCC1CNc1c(Cl)c(Cl)nc2c1c(=O)n(C)c(=O)n2C (stereo not drawn) [CBK007287] | 97.2 |
| O=C(Nc1ccc2[nH]ccc2c1)c1ccc(OC(F)(F)F)cc1 [CBK159688] | 61.5 |
| CC(=O)N1N=C(c2ccc3c(c2)OCO3)CC1c1ccc(C(=O)O)cc1 (stereo not drawn) [CBK286547] | 95.4 |
| COc1cccc2sc(Nc3nc4ccc(NC(C)=O)cc4s3)nc12 [CBK287468] | 94.9 |
| COc1cc(CCN2CCN(C(C)C)CC2)cc(OC)c1OC [CBK028881C] | 89.8 |
| Cc1nc(CSc2nc3sc4c(c3c(=O)n2-c2ccccc2)CCCCC4)cs1 [CBK265706] | 110 |
| Cc1nnc(NCCN2CCOCC2)nc1O [CBK267912] | 98.5 |
| O=[N+]([O-])c1ccc(N2CCN(Cc3ccccc3)CC2)cc1NCc1ccccc1 [CBK045841] | 86.9 |
| COc1ccc(C(C)C)cc1-c1ccc(C(=O)N2CCN(C)CC2)c(N(C)C)n1 [CBK106130] | 88 |
| O=C(Nc1cc(NC(=O)C2C3C=CC(C3)C2C(=O)O)ccc1Cl)c1cccs1 (stereo not drawn) [CBK263959] | 89.6 |
| COc1ccc(/C=N/NC(=O)Cc2cccn2C)cc1[N+](=O)[O-] [CBK262789] | 99.1 |
| O=C(Nc1nc2c(s1)CCc1ccccc1-2)C1CC1 [CBK287330] | 85.3 |
| Cc1nn(C)c(C)c1NC(=O)CSc1nnc(-c2cccc(Br)c2)n1-c1ccccc1 [CBK267430] | 103 |
| COc1cc(CCc2cc(O)n3nc(C)c(-c4ccc(Cl)cc4)c3n2)on1 [CBK285681] | 91.3 |
| CCCCOC(=O)CCc1nc2ccccc2nc1O [CBK264523] | 97.3 |
| CCS(=O)(=O)NC1CCN(c2nc(C(F)(F)F)nc3[nH]cnc23)CC1 [CBK304588] | 86.8 |
| S=c1n(CN2CCC3(CC2)OCCO3)nc(-c2ccccc2Cl)n1-c1ccccc1 [CBK265222] | 88.4 |
| COc1ccccc1N1CCN(CCCCNC(=O)c2ccc(Cl)cc2)CC1 [CBK074835] | 93 |
| CN(CCNC(=O)Nc1ccc2c(c1)oc(=O)n2C)C1CCCC1 [CBK305503] | 95.1 |

| SMILES | viability at 28.5 h, 10 µM [%] |
| --- | --- |
| O=C(Nc1cc2cccnc2c(Br)n1)Nc1ccc(F)cc1C(F)(F)F [CBK063287] | 88.8 |
| COc1ccc(CC(=O)NNC(=O)c2ccc(C(C)(C)C)cc2)cc1 [CBK261700] | 92.5 |
| Cc1cccc(C(=O)Nc2ncn(CC(=O)N3CCCCCC3)n2)n1 [CBK304954] | 86.6 |
| Nc1ncc(-c2ccc(C(=O)N3CCOCC3)cc2)nc1-c1ccc(CCC(=O)O)cc1 [CBK126368] | 97.3 |
| Nc1ncc(-c2cccc([N+](=O)[O-])c2)nc1-c1ccc(O)cc1 [CBK122507] | 101 |
| COc1ccc(NC(=O)c2ccc(-c3nnn[nH]3)cc2)cc1Cl [CBK295139] | 114 |
| O=C(NCc1ccc2c(c1)OCO2)c1ccc2c(c1)C(=O)N(Cc1cccnc1)C2=O [CBK267824] | 89.3 |
| Cc1nc(C2CCCC2)cc([C@H]2CN3CC[C@H]2C[C@@H]3CNC(=O)c2ccco2)n1 [CBK289120] | 109 |
| Cc1ccccc1Nc1nc(N)nc(CN2CC(C)OC(C)C2)n1 (stereo not drawn) [CBK305856] | 105 |
| CCOC(=O)C(C(=O)OCC)(N1CCOCC1)N1CCOCC1 [CBK261176] | 112 |
| CCOc1ccc2[nH]c(=O)c(/C=C3\SC(=S)N(CCC(=O)O)C3=O)cc2c1 [CBK265213] | 89.7 |
| CN(C)C(=O)[C@@]1(O)CCC2(c3ccc(Cl)cc3)CCCN(C)C2C1 (stereo partly drawn) [CBK005234] | 92.8 |
| Cc1csc(N2CCN(C(=O)CCc3nc(C(C)C)no3)CC2)n1 [CBK305341] | 99.4 |
| CS(=O)(=O)N1CC2CCCC(O)(c3cccc(F)c3)C2C1 (stereo not drawn) [CBK283107] | 97.3 |
| Cc1cc(-c2nnc(SCC(=O)N3CCCCC3)o2)no1 [CBK268731] | 86.6 |
| CC(C)Cc1ccc(C(CC(=O)O)C(=O)O)cc1 (stereo not drawn) [CBK286703] | 109 |
| O=C(O)CCCn1cc(NC(=O)Cc2ccccc2F)cn1 [CBK270119] | 96.3 |
| CC(C)c1nsc(NS(=O)(=O)Cc2ccccc2)n1 [CBK051188] | 112 |
| Cc1nn(-c2ncccn2)c2c1C(C(=O)c1ccccc1)CC(=O)N2 (stereo not drawn) [CBK287890] | 93.2 |
| CC(Cc1cccs1)NC(=O)C(C)Cn1cccn1 (stereo not drawn) [CBK283250] | 85.4 |
| Cc1cnc(CNC(=O)N2CCc3ccccc3C2)cn1 [CBK155166] | 97.3 |
| CN(C)CCN(C)Cc1ccccc1O [CBK261875] | 103 |
| Cn1cc(Nc2nc(-c3ccc4c(c3)CCCN4S(C)(=O)=O)cs2)cn1 [CBK306236] | 85.7 |

| SMILES | viability at 28.5 h, 10 µM [%] |
| --- | --- |
| NC(=O)CN1CCC(Oc2cncc(OCc3cccnc3)n2)C1 (stereo not drawn) [CBK084459] | 98 |
| CCOc1ccc2c(c1)CN(CCCc1nc(C)no1)CC2 [CBK305076] | 99.2 |
| CCOC(=O)N1CCC(NC(=O)N2CCN(c3ccccc3)CC2)CC1 [CBK155210] | 113 |
| O=C(O)c1ccc(/C=N/Nc2cccc3cccnc23)cc1 [CBK262372] | 74.4 |
| COc1cc(CN2CCN(C(=O)c3cccc4ccccc34)CC2)cc(OC)c1O [CBK263477] | 103 |
| Cn1ccnc1CN1C(=O)CO[C@H]2CN(c3ncccn3)C[C@H]21 [CBK289704] | 98.3 |
| CCCC(=O)Nc1ccc(-c2csc(NC(=O)C3CCCO3)n2)cc1 (stereo not drawn) [CBK305854] | 77.8 |
| Cc1cc(C(F)(F)F)c2c(NC/C=C/c3ccco3)n[nH]c2n1 [CBK283651] | 92.7 |
| COCCN1C(=O)CN(Cc2ccccc2)C1=O [CBK162369] | 95.1 |
| Cc1ccc(SCCNC(=O)CSc2n[nH]c(=O)n2C2CC2)cc1 [CBK295605] | 120 |
| Cc1noc2nc(-c3ccco3)cc(C(=O)N(C)CCOc3ccccc3)c12 [CBK295623] | 90.1 |
| Cc1cccn2cc(CC(=O)NC3(C#N)CCCCC3)nc12 [CBK306252] | 95.2 |
| O=C(CN1C(=O)S/C(=C\C=C\c2ccccc2)C1=O)Nc1cccc2c1C(=O)c1ccccc1C2=O [CBK263870] | 87.1 |
| Cc1ncncc1C(=O)N1CCc2sccc2C1c1ccccc1 (stereo not drawn) [CBK281386] | 113 |
| CN1CCN(CC(=O)Nc2ccc(OCc3ccccc3)cc2)CC1 [CBK264844] | 103 |
| CNCC1CCCN(Cc2cn(-c3ccc(Br)cc3)nc2C)C1 (stereo not drawn) [CBK304301C] | 99.7 |
| CC(=O)c1c(C)[nH]c(C(=O)N2CCN(C3CCN(C)CC3)CC2)c1C [CBK149098] | 104 |
| CN(C)CCOCCS(=O)(=O)c1ccc(N2CCC(c3ccc(Cl)cc3)=N2)cc1 [CBK018115] | 114 |
| O=C(NCCO)C1CCCN(S(=O)(=O)c2ccc3ccccc3c2)C1 (stereo not drawn) [CBK270090] | 83.7 |
| O=C(NCCc1c[nH]c2ccccc12)NC(=O)C1CCNCC1 [CBK051094] | 90.2 |
| COCCNC(=O)C1CCN(c2nc3c(-c4cccc(C)c4)csc3c(=O)[nH]2)CC1 [CBK215629] | 93.1 |
| NC(=O)N1CCC(C(=O)N2CC3(CCCC3)c3c(F)cccc32)CC1 [CBK304973] | 108 |
| COc1ccccc1-c1cc([C@H]2CN3CC[C@H]2C[C@@H]3CNC(=O)c2ccco2)nc(C)n1 [CBK289119] | 105 |

| SMILES | viability at 28.5 h, 10 µM [%] |
| --- | --- |
| CC(C)NC(=O)c1cc([C@H]2CC[C@H](CNC(=O)CN3CCCC3)CC2)nc2ccccc12 [CBK285861] | 85.7 |
| CC(C)n1c(=O)n(CC(=O)N2CCCCC2)c2cccnc21 [CBK283526] | 90.6 |
| O=C(CSc1ccccc1)Nc1nccs1 [CBK288213] | 109 |
| CC(C)NC(=O)c1sc2ccccc2c1C1CN(Cc2cccc3ncccc23)CCO1 (stereo not drawn) [CBK285879] | 85.6 |
| Cc1cccc2cnc(C3CCN(C(=O)CCc4ccno4)CC3)cc12 [CBK285197] | 81 |
| CC(=O)N1CCC[C@H]1Cn1nc(-c2cccs2)ccc1=O [CBK284249] | 78.1 |
| CN(C)Cc1cc(CN(C)C)c(O)c(C(C)(C)C)n1 [CBK260969] | 90.6 |
| CC(=O)c1ccccc1OCCOCCN1CCCC(C)C1 (stereo not drawn) [CBK269625C] | 106 |
| CCOc1ccc(Oc2ccc(C(F)(F)F)cc2NC(=O)CCCC(=O)O)cc1 [CBK296993] | 90.7 |
| Nc1nnc(SCC(=O)N(Cc2ccccc2F)C2CC2)s1 [CBK295179] | 84.3 |
| O=S(=O)(NCc1ccccc1)N1CCCCCC1 [CBK269569] | 101 |
| O=[N+]([O-])c1ccc(F)cc1NS(=O)(=O)c1ccccc1 [CBK000674] | 93.1 |
| Cc1nc(NCCO)c2c3c(sc2n1)CCCC3 [CBK131920] | 90.1 |
| CS(=O)(=O)N1CC2(CCN(CCOCc3ccccc3)CC2)c2ccccc21 [CBK115458T] | 96.4 |
| CC1=C[C@@H](CC#N)[C@H](C(C)C)C[C@H]1CC(=O)Nc1ccccn1 [CBK289215] | 87 |
| CCN(CC)CCn1nc2n(c1=O)-c1ccccc1SC(c1ccccc1)C2 (stereo not drawn) [CBK016064] | 91.9 |
| CCOc1ncccc1C(=O)Nc1cnc2c(cnn2C(C)C)c1 [CBK306210] | 102 |
| N#CCCSCc1ccc(C(=O)O)o1 [CBK265858] | 115 |
| CC(C)NC(=O)CCn1c(-c2ccncc2)cc2cccnc21 [CBK284931] | 111 |
| Cc1ccc(C(=O)Nc2nnn(C)n2)c(Cl)c1 [CBK287856] | 97.4 |
| Fc1ccc(-c2ccc(CNCCCN3CCOCC3)o2)cc1 [CBK278199C] | 84.5 |
